{"source": "patent US20240050735A1", "about": "“SYSTEMS AND METHODS FOR TREATING AND INHIBITING WOUND INFECTIONS” (priority 2020, published 2024)", "key": {"planktonic MRSA": {"tested_on": "planktonic MRSA", "test": "Time-killing test on planktonic MRSA in stationary phase", "assay_type": "cell-based, Methicillin-resistant S. aureus (MRSA) USA300", "details": "5 mg mL^−1 DAP, within 24 hours", "protocol": "MRSA bacteria was cultured in LB media in a 37° C. water shaking bath overnight to reach the concentration of 1×10^8 CFU mL^−1. Then, they were diluted to 10^5 CFU mL^−1 in 96-well plates by adding different concentrations of VAN solutions. After incubation for 24 hours without shaking, MIC of VAN to inhibit MRSA growth was measured by a Biotek Synergy H1 hybrid multi-mode microplate reader (BioTek, Winooski, Vt., USA) at OD600. To evaluate the killing time of VAN to bacteria in stationary phase (1×10^8 CFU mL^−1), VAN powder was added to bacteria solution to obtain concentration of 1 mg mL^−1, 3 mg mL^−1, 5 mg mL^−1, and 10 mg mL^−1, respectively, while remaining MRSA concentration of 1×10^8 CFU mL^−1. After incubation in a 37° C. water bath for 1 day, 2 days, 3 days and 4 days, the CFU of MRSA cells was tested by the standard plate spread counting assay, respectively. The time-killing tests of DAP with different concentrations (0.1 mg mL^−1, 0.5 mg mL^−1, 1 mg mL^−1, and 5 mg mL^−1) on MRSA planktonic cells were also performed, with the incubation time up to 24 hours."}, "[1]": {"assay_type": "in vitro ADME", "details": "for concentration delivered to wound tissues: 5 mg mL^−1 DAP loaded", "protocol": "Investigations were also performed to determine the iontophoretic antibiotic delivery efficiency of the HIC-based biofilm treatment system 100 using high current intensities. These investigations included an ex vivo antibiotic delivery study using the same MRSA biofilm-infected porcine skin wound model as in the previous section. Vancomycin (VAN) was used here as a model drug, since it is the FDA-approved antibiotic and is the clinical gold standard for combating S. aureus infections.\nFirst the VAN delivery efficiency was tested at different current intensities (from 0 mA cm^−2 (passive diffusion) to 75 mA cm^−2) applied by the HIC-based biofilm treatment system 100 for 1 hour. The drug/buffer chamber 114 of the working device 104 was loaded with 1 mg mL^−1 VAN in this study. The anode side was used as the working device 104 because VAN required anodal iontophoresis. The accumulated concentration of VAN in biofilm infected skin wound was measured immediately after iontophoresis using high performance liquid chromatography (HPLC). […] When 75 mA cm^−2 was used, the VAN concentration in wound tissue increased to 4.5±0.52 mg g^−1. The VAN concentration in wound tissue after passive diffusion, 0.5 mA cm^−2, and 19 mA cm^−2 iontophoresis were also measured. However, they could not be distinguished from the background interference of the residual biofilm components, so no quantitative results were obtained (data not shown). Importantly, the VAN concentration delivered by 75 mA cm^−2 iontophoresis for 1 hour exceeded the minimal biofilm eradication concentration (MBEC) of VAN reported for MRSA biofilm, which was 4 mg g^−1. The ability to deliver a lethal antibiotic concentration into biofilm-infected wounds within a short period of time was critical for biofilm treatment as it would minimize the chance for bacteria to develop adaptive tolerance.\nThe fetal pig skin samples (approximately 30×30 mm) were immersed in 10% (v/v) bleach for 5 minutes after hair removal. Then, skin samples were sterilized in 70% ethanol for 30 minutes. The surface of skin sample was further cleaned by 10% povidone-iodine and 70% isopropanol to prevent contamination. A 6-mm disposable biopsy punch was used to create an excisional wound. Samples were put into sterile 10-cm petri-dishes filled with sterile PBS (6 mL). The wound was then inoculated with 1×10^8 CFU mL^−1 MRSA bacteria solution (20 μL). The bacteria were allowed to grow in a 37° C. Heratherm™ compact microbiological incubator (ThermoFischer Scientific™, Waltham, Mass., USA) for 48 hours to form mature biofilms.\nTo evaluate the antibiotic delivery efficacy of VAN by high-intensity current, biofilm infected fetal pig skin wound was used. The DAP test setup was same as that of VAN, except no PBS chamber 122 was used. Instead, the inner surface of the skin wound contacted directly to the hydrogel 120 of the counter device 106. To evaluate the effect of electrical current intensity on the drug delivery efficacy, different current intensities from 0 to 75 mA cm^−2 were applied. To evaluate the effect of loading concentration of antibiotics, different concentrations of VAN and DAP from 1 mg mL^−1 to 10 mg mL^−1 were used. Since VAN is […] and DAP is negatively charged under physiological environment, anode HIC-based device was placed facing biofilm for VAN iontophoresis, and cathode HIC-based device was placed facing biofilm for DAP iontophoresis. Samples were collected immediately after different treatments. The concentrations of antibiotics delivered into skin wound samples were measured by high-performance liquid chromatography (HPLC). The permeation coefficient (Pc, cm s^−1) was then calculated (Pc=J/C, where J is antibiotic delivery flux in tissue samples (μg (cm^2s)^−1, C is the loading concentration of antibiotic solution (μg m L^−1)). […]"}, "HDFa cells": {"tested_on": "HDFa cells", "test": "Cell toxicity of high concentration of antibiotics, LIVE/DEAD stain", "assay_type": "cell-based, human", "details": "20 mg mL^−1 DAP, 24 hour incubation", "protocol": "(§1) To evaluate the cell toxicity of the high concentration of antibiotics, HaCaT cells and HDFa cells were used. 2×10^4 HaCat cells and 2×10^3 HDFa cells were seeded in each well of a 96-well plate. After being cultured in an incubator under 37° C. and 5% CO2 for 24 hours, 4.5 mg mL^−1 VAN and 20 mg mL^−1 DAP were added to the culture media, respectively. Both HaCat cells and HDFa cells were treated by VAN for two days, and exposed to DAP for one day, respectively. The cell toxicity of the two cells at the end time points were evaluated by LIVE/DEAD stain and visualized by a confocal laser scanning microscope (CLSM, LSM 710, Zeiss, Germany)."}, "HaCaT cells": {"tested_on": "HaCaT cells", "test": "Cell toxicity of high concentration of antibiotics, LIVE/DEAD stain", "assay_type": "cell-based, human", "details": "20 mg mL^−1 DAP, 24 hour incubation", "protocol": "as §1"}, "[2]": {"tested_on": "S. aureus persister cells", "details": "even at 100×MIC; cited from earlier work"}, "[3]": {"assay_type": "in vitro ADME, porcine", "details": "for distribution in wound tissue (fluorescence): 1 mg mL^−1 FD-4", "protocol": "It was determined that high-intensity iontophoresis using the HIC-based biofilm treatment system 100 was able to enhance the VAN penetration depth in wound tissues. A high penetration depth would allow effective treatment of bacteria in deeper layers of clinical biofilm infections to minimize biofilm reformation. A fluorescently labeled dextran (M.W.=4 kDa, FD-4) was used to visualize drug distribution in wound tissue immediately after iontophoresis in this test. […] All wound tissues were dehydrated by acetone before sectioning to minimize FD-4 mobility during sample processing. When passive diffusion and 0.5 mA cm^−2 were applied, the fluorescence was indiscernible under microscope. […] This penetration depth was higher than the typical thickness of in vivo S. aureus biofilm infections in skin wounds (150 μm above wound surface and 190 μm below wound surface).\nFD-4 penetration and distribution in the MRSA biofilm infected skin wound was evaluated by cryo-section and fluorescent microscopy. Briefly, samples were collected by 8-mm disposable biopsy punch and dehydrated in acetone for 10 to 30 minutes. After being air dried for another 10 to 30 minutes, the samples were embedded in tissue freezing medium (OCT) and sectioned to obtain 10 μm section under −20 ° C. Section samples were then observed under a fluorescent microscope (DMI 6000 B, Leica, Bannockburn, Ill., USA)."}, "S. gordonii biofilms": {"tested_on": "S. gordonii biofilms", "details": "cited from earlier work"}}, "note": "Like-named read-outs stand apart in the source and are kept apart here."}
{"compound": "CCCCCCCCCC(=O)N[C@@H](Cc1c[nH]c2ccccc12)C(=O)N[C@H](CC(N)=O)C(=O)N[C@@H](CC(=O)O)C(=O)N[C@@H]1C(=O)NCC(=O)N[C@@H](CCCN)C(=O)N[C@@H](CC(=O)O)C(=O)N[C@H](C)C(=O)N[C@@H](CC(=O)O)C(=O)NCC(=O)N[C@H](CO)C(=O)N[C@@H]([C@H](C)CC(=O)O)C(=O)N[C@@H](CC(=O)c2ccccc2N)C(=O)O[C@@H]1C", "note": "[DAP, Daptomycin]", "values": [{"measurement": "bacterial count after incubation (from 10^8 CFU g^−1)", "setting": "planktonic MRSA", "result": 0, "unit": "CFU g^−1"}, {"measurement": "Pc at 75 mA cm^−2 higher than 0.5 mA cm^−2 iontophoresis", "setting": "[1]; 5 mg mL^−1 DAP", "result": 10.1, "unit": "times"}, {"measurement": "Pc at 75 mA cm^−2 higher than passive diffusion", "setting": "[1]; 5 mg mL^−1 DAP", "result": 12.0, "unit": "times"}, {"measurement": "permeation coefficient (Pc)", "setting": "[1]; 0.5 mA cm^−2 iontophoresis, 5 mg mL^−1 DAP", "result": "15.7±3.37 ×10^−6 cm s^−1"}, {"measurement": "concentration delivered into wound tissue", "setting": "[1]; 75 mA cm^−2, 1 hour, 1 mg mL^−1 DAP loaded", "result": "3.3 ± 1.49", "unit": "mg/g"}, {"measurement": "concentration delivered to wound tissues", "setting": "[1]; 75 mA cm^−2, 1 hour", "result": "19.9 ± 1.45", "unit": "mg/g"}, {"measurement": "concentration delivered into wound tissue", "setting": "[1]; 75 mA cm^−2, 1 hour, 10 mg mL^−1 DAP loaded", "result": "32.8 ± 5.68", "unit": "mg/g"}, {"measurement": "permeation coefficient (Pc)", "setting": "[1]; 75 mA cm^−2 iontophoresis, 5 mg mL^−1 DAP", "result": "158.3±11.18 ×10^−6 cm s^−1"}, {"measurement": "permeation coefficient (Pc)", "setting": "[1]; passive diffusion, 5 mg mL^−1 DAP", "result": "13.2±3.15 ×10^−6 cm s^−1"}, {"measurement": "concentration delivered to wound tissues", "setting": "[1]; passive diffusion, 1 hour", "result": "1.7 ± 0.59", "unit": "mg/g"}, {"measurement": "viability of skin cells", "setting": "HDFa cells", "result": "did not have significant impact"}, {"measurement": "viability of skin cells", "setting": "HaCaT cells", "result": "did not have significant impact"}, {"measurement": "killing of S. aureus persister cells", "setting": "[2]", "result": "not capable of killing"}]}
{"compound": "Fluorescein isothiocyanate (FITC) labeled dextran-4 kDa [FD-4]", "values": [{"measurement": "distribution in wound tissue (fluorescence)", "setting": "[3]; 0.5 mA cm^−2, 1 hour", "result": "indiscernible"}, {"measurement": "distribution in wound tissue (fluorescence)", "setting": "[3]; 19 mA cm^−2, 1 hour", "result": "fluorescence could only be seen near the upper boundary of the wound tissue"}, {"measurement": "penetration depth (entire tissue thickness, after dehydration)", "setting": "[3]; 75 mA cm^−2, 1 hour", "result": "182.4±12.62", "unit": "μm"}, {"measurement": "penetration depth (entire tissue thickness, before dehydration)", "setting": "[3]; 75 mA cm^−2, 1 hour", "result": "955.7±192.56", "unit": "μm"}, {"measurement": "distribution in wound tissue (fluorescence)", "setting": "[3]; 75 mA cm^−2, 1 hour", "result": "penetrated the entire thickness of the tissue sample"}, {"measurement": "distribution in wound tissue (fluorescence)", "setting": "[3]; passive diffusion, 1 hour", "result": "indiscernible"}]}
{"compound": "gentamicin", "values": [{"measurement": "biofilm bacterial count reduction", "setting": "S. gordonii biofilms; 0.4 mA cm^−2 with 2 μg mL^−1 gentamicin, 24 hours", "result": 4.3, "unit": "log10 scales"}, {"measurement": "bacteria count reduction", "setting": "S. gordonii biofilms; antibiotic alone", "result": 0.8, "unit": "log10 scale"}]}
